Reference: US12653191B2, “Active compound combinations” (Bayer Aktiengesellschaft, priority 2020, dated 2026)
Like-named read-outs stand apart in the source and are kept apart here.

Experiments:
[1] = test system: Colletotrichum lindemuthianum; test: in vitro-Test with fungal microorganisms, Method A (tables D1-D8); type: cell-based; details: Colletotrichum lindemuthianum, read-out: Efficacy %
Method in brief: (§1)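 Growth inhibition was measured photometrically at 620 nm 3–5 days after application, with 100% efficacy meaning no growth and 0% meaning growth equal to the untreated control. Fungal spore or mycelium suspension in potato dextrose broth was added onto solvent-evaporated compound and incubated at 20° C and 85% relative humidity.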

Diaporthe citri [2] = test: in vitro-Test with fungal microorganisms, Method A (tables F1-F11); type: cell-based; details: Diaporthe citri, read-out: Efficacy
Method in brief: as §1

Diaporthe citri [3] = test: in vitro-Test with fungal microorganisms, Method B (tables F12-F15); type: cell-based; details: Table F15; 0.008 ppm alone
Method in brief: (§2)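 Steps: solvent evaporation leaves the compound coating the wells; fungus-inoculated liquid growth medium goes on top; absorbance at 600 nm is measured; incubation runs 3 to 7 days at 20° C. with 85% relative humidity. Inhibition is then read photometrically and expressed as efficacy against untreated control.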

Parastagonospora nodorum = test: in vitro-Test with fungal microorganisms, Method B (tables H5-H8); type: cell-based; details: Parastagonospora nodorum, read-out: Efficacy
Method in brief: as §2

Colletotrichum coccodes = test: in vitro-Test with fungal microorganisms, Method B (tables J1-J11); type: cell-based; details: Colletotrichum coccodes, read-out: Efficacy %
Method in brief: as §2

Cordana musae = test: in vitro-Test with fungal microorganisms, Method A (tables E1-E8); type: cell-based; details: Neocordana musae, read-out: Efficacy %
Method in brief: as §1

Cercospora beticola [4] = test: in vitro-Test with fungal microorganisms, Method B (tables C11-C20); type: cell-based; details: Cercospora beticola, single compound, 0.008 ppm; read-out: Efficacy %
Method in brief: as §2

[5] = test system: Ustilago segetum var. avenae; test: in vitro-Test with fungal microorganisms, Method B (tables I6-I11); type: cell-based; details: read-out: Efficacy %
Method in brief: as §2

Alternaria alternate = test: in vitro-Test with fungal microorganisms, Method A (tables A1-A12); type: cell-based, Alternaria alternata; details: Alternaria, applied alone, read-out: Efficacy %
Method in brief: as §1

Cercospora beticola [6] = test: in vitro-Test with fungal microorganisms, Method A (tables C1-C10); type: cell-based; details: Cercospora beticola, read-out: Efficacy %
Method in brief: as §1

Fusarium culmorum = test: in vitro-Test with fungal microorganisms, Method A (tables G1-G4); type: cell-based; details: Fusarium culmorum, read-out: Efficacy
Method in brief: as §1

[7] = test system: Ustilago segetum var. avenae; test: in vitro-Test with fungal microorganisms, Method A (tables I1-I5); type: cell-based; details: alone, read-out: Efficacy %
Method in brief: as §1

Alternaria alternata = test: in vitro-Test with fungal microorganisms, Method B (tables A13-A22); type: cell-based; details: Alternaria alternata, read-out: Efficacy
Method in brief: as §2

Botrytis cinerea = test: in vitro-Test with fungal microorganisms, Method A (tables B1-B14); type: cell-based; details: Botrytis cinerea, alone, read-out: Efficacy %
Method in brief: as §1

Compound `CON=C(C(=O)OC)c1ccccc1CON=C(C)c1cccc(C(F)(F)F)c1` [(3.020) trifloxystrobin, trifloxystrobin] has an inhibition of growth at 0.008 ppm ([1]; mixing partner alone, 0.008 ppm) of 30%, an inhibition of growth at 0.04 ppm ([1]; mixing partner alone, 0.04 ppm) of 80% and an inhibition of growth at 0.2 ppm ([1]; mixing partner alone, 0.2 ppm) of 92%. For the same compound, the inhibition of growth at 1 ppm ([1]; mixing partner alone, 1.0 ppm) was 88%, the inhibition of growth at 0.008 ppm ([1]; single active at 0.008 ppm) was 25% and the inhibition of growth at 0.04 ppm ([1]; single active at 0.04 ppm) was 66%. The inhibition of growth at 0.2 ppm ([1]; single active at 0.2 ppm) was 85%, the inhibition of growth at 1 ppm ([1]; single active at 1.0 ppm) was 84% and the inhibition of growth at 0.008 ppm (Diaporthe citri [2]; applied alone) was 65%. The inhibition of growth at 0.04 ppm (Diaporthe citri [2]; applied alone) was 95%, the inhibition of growth at 0.008 ppm (Diaporthe citri [2]; single active) was 63% and the inhibition of growth at 0.04 ppm (Diaporthe citri [2]; single active) was 95%. For the same compound, the inhibition of growth at 0.2 ppm (Diaporthe citri [2]; single active, 0.2 ppm) was 95%, the inhibition of growth at 1 ppm (Diaporthe citri [2]; single active, 1.0 ppm) was 96% and the Efficacy (Diaporthe citri [3]) was 68%. It also gave an inhibition of growth at 0.008 ppm (Parastagonospora nodorum; 0.008 ppm) of 17%, an inhibition of growth at 0.04 ppm (Parastagonospora nodorum; 0.04 ppm) of 54% and an inhibition of growth at 0.2 ppm (Parastagonospora nodorum; 0.2 ppm) of 83%. For the same compound, the inhibition of growth at 1 ppm (Parastagonospora nodorum; 1 ppm) was 87%, the inhibition of growth at 0.04 ppm (Colletotrichum coccodes; 0.04 ppm) was 35% and the inhibition of growth at 0.008 ppm (Colletotrichum coccodes; single active compound at 0.008 ppm) was 0%. The inhibition of growth at 1 ppm (Colletotrichum coccodes; single active compound at 1 ppm) was 50%, the inhibition of growth at 0.008 ppm (Cordana musae; mixing partner alone) was 3% and the inhibition of growth at 1 ppm (Cordana musae; mixing partner alone) was 66%. For the same compound, the inhibition of growth at 0.008 ppm (Cordana musae; single substance) was 13%, the inhibition of growth at 0.04 ppm (Cordana musae; single substance, 0.04 ppm) was 67% and the inhibition of growth at 0.2 ppm (Cordana musae; single substance, 0.2 ppm) was 48%. For the same compound, the inhibition of growth at 1 ppm (Cordana musae; single substance) was 77%, the inhibition of growth at 0.008 ppm (Cercospora beticola [4]) was 96% and the inhibition of growth at 0.04 ppm ([5]; 0.04 ppm) was 38%. The inhibition of growth at 0.2 ppm ([5]; 0.2 ppm) was 54%, the inhibition of growth at 1 ppm ([5]; 1 ppm) was 60% and the inhibition of growth at 0.008 ppm (Alternaria alternate; 0.008 ppm) was 44%. The inhibition of growth at 0.04 ppm (Alternaria alternate; 0.04 ppm) was 87%, the inhibition of growth at 0.2 ppm (Alternaria alternate; 0.2 ppm) was 95% and the inhibition of growth at 1 ppm (Alternaria alternate; 1.0 ppm) was 96%. It also gave an inhibition of growth at 0.008 ppm (Cercospora beticola [6]; 0.008 ppm alone) of 95%, an inhibition of growth at 0.04 ppm (Cercospora beticola [6]; 0.04 ppm alone) of 100% and an inhibition of growth at 0.2 ppm (Cercospora beticola [6]; 0.2 ppm alone) of 100%. The inhibition of growth at 1 ppm (Cercospora beticola [6]; 1.0 ppm alone) was 100%, the inhibition of growth at 0.2 ppm (Fusarium culmorum; 0.2 ppm, alone) was 22% and the inhibition of growth at 1 ppm (Fusarium culmorum; 1.0 ppm, alone) was 5%. For the same compound, the inhibition of growth at 0.04 ppm (Fusarium culmorum; Table G1, 0.04 ppm alone) was 0%, the inhibition of growth at 0.2 ppm (Fusarium culmorum; Table G1, 0.2 ppm alone) was 15% and the inhibition of growth at 1 ppm (Fusarium culmorum; Table G1, 1.0 ppm alone) was 15%. For the same compound, the inhibition of growth at 0.008 ppm ([7]; 0.008 ppm) was 19%, the inhibition of growth at 0.04 ppm ([7]; 0.04 ppm) was 0% and the inhibition of growth at 1 ppm ([7]; 1.0 ppm) was 64%. The inhibition of growth at 5 ppm ([7]; 5.0 ppm) was 100%, the inhibition of growth at 0.04 ppm (Alternaria alternata; 0.04 ppm) was 49% and the inhibition of growth at 0.2 ppm (Alternaria alternata; 0.2 ppm) was 85%. For the same compound, the inhibition of growth at 0.008 ppm (Botrytis cinerea; 0.008 ppm) was 19%, the inhibition of growth at 0.04 ppm (Botrytis cinerea; 0.04 ppm) was 0% and the inhibition of growth at 0.2 ppm (Botrytis cinerea; 0.2 ppm) was 0%. The inhibition of growth at 1 ppm (Botrytis cinerea; 1.0 ppm) was 37%.
